Tests used:
[1] = target: T1, TRβ (Homo sapiens, UniProt P10828); assay: TRβ-anti CALUX reporter gene assay (antagonistic mode); type: cell-based; set-up: key: –: no effect observed up to the highest test concentration; details: PC20, 24 h exposure
T1 construct: expression construct for the full-length human receptor under investigation; expressed in transfected cells; host or cells: human U2-OS cells (ATCC HTB-96), stably transfected
T1 sequence (P10828 1-461): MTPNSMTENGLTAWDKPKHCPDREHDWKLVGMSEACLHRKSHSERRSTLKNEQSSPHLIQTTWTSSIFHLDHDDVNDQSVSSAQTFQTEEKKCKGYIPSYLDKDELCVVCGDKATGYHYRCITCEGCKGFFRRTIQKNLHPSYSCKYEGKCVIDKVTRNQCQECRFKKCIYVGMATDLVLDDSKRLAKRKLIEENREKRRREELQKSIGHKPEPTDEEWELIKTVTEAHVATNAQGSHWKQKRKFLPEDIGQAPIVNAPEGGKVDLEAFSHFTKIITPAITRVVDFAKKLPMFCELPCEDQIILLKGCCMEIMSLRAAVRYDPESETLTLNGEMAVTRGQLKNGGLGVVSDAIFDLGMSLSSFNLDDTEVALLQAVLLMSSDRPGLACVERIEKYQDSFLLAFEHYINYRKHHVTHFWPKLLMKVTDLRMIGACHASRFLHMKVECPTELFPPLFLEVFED
Text: (§1) 2-methylimidazole 99.0%, zinc(II) nitrate hexahydrate ≥99.0%, para-cymene 99.0%, 1,4-dioxane 99.8% (anhydrous), 4-nitroaniline ≥99.0%, 1-octanol ≥99.0%, diglyme ≥99.0%, DMSO-d6 (99.8% D) and chloroform-d (99.8% D) were purchased from Sigma-Aldrich. Toluene ≥99.0%, hexane ≥99.5%, DCM ≥99.5%, chloroform ≥99.5%, DMSO ≥99.0% were purchased from VWR. N,N-diethyl-4-nitroaniline ≥98.0% was purchased from Alfa Aeser. Cyrene was supplied by Circa group. N-butylpyrrolidinone was supplied by Eastman chemicals. N,N-dimethylformamide 99.9% and N,N-dimethylacetamide 99.9% were purchased from Fischer. The flakes of Ultrason® E3020 P Polyarylethersulfone of 55,000 Da were obtained from INGE.BASF, Germany. The CALUX cell lines have been described previously.[1] They are based on human U2-OS cells (ATCC, HTB-96) stably transfected with an expression construct for the full-length human receptor under investigation, and a reporter construct consisting of multimerized responsive elements for the cognate receptor coupled to a minimal promoter element (TATA) and a luciferase gene. Cells were maintained as described previously,[2] using cell culture media and supplements from Fisher Scientific as described in the experimental procedures section. […]
(§2) In vitro reporter gene assays
(§3) The automated CALUX assays were carried out similarly as described earlier,[12] with some adaptations. In brief, the assay was performed in CO2 independent medium (Fisher Scientific, […]
(§4) supplement (Fisher Scientific, 11574466), 10 U/mL penicillin and 10 µg/mL streptomycin. A cell suspension in assay medium was made of 1 × 10^5cells/mL, and white 384-wells plates were seeded with 30 µl cell suspension/well. After 24 h, exposure medium was prepared. A dilution series in 0.5log unit increments of each test compound (in DMSO) was added to a 96-wells plate containing assay medium (2% v/v). Of this exposure mixture, 30 µl was added to the assay plates containing the CALUX cells, resulting in a final DMSO concentration of 1%. Additionally, DMSO blanks and a full dose response curve of the relevant reference compound were included on each plate. All samples were tested in triplicate. The preparation of the compound dilution series as well as the exposure of the cells were performed on a Hamilton StarLET liquid handling robot coupled to a Cytomat incubator.
(§5) Directly after exposure, plates were sealed with non-breathing plate seals (Plate sealer, easy seal transparent; Greiner-Bio-One, 676001). After 24 h the exposure medium was removed using an EL406 washer-dispenser (BioTek) and 10 µl/well triton lysisbuffer was added by the EL406.
Subsequently, the luciferase signal was measured in a luminometer (InfinitePro coupled to a Connect Stacker, both TECAN). In order to be able to detect receptor antagonism, several assays were also performed in antagonistic mode. […]
The luminometer data was analysed as follows; the average of the triplicate wells was determined, and the average blank (DMSO) value was subtracted. […] For antagonist- and cytotoxicity experiments, PC20 values were determined instead, which was defined as the concentration where the test compound causes a 20% decrease in the basal signal, which was […]
curve, the signal induction above background (DMSO) was determined, and the concentration where the compound elicited a 1.5-fold increase above background was used as LEC.

[2] = tested on: TCF; assay: TCF CALUX assay (Wnt signaling); type: cell-based, human; set-up: key: –: no effect observed up to the highest test concentration; details: cell signaling pathway assay, 24 h exposure
Text: Six of the CALUX assays (TCF through p53) detect activation of several cellular signaling pathways, which are indicative of general stress and acute toxicity, but also a range of more specific types of toxicity, including reproductive toxicity. […]
as §1, §2, §3, §4, §5
Subsequently, the luciferase signal was measured in a luminometer (InfinitePro coupled to a Connect Stacker, both TECAN). In order to be able to detect receptor antagonism, several assays were also performed in antagonistic mode. The assay procedure was as described above, with the only exception that the EC50 concentration of the reference agonist was present during the exposure.
The luminometer data was analysed as follows; the average of the triplicate wells was determined, and the average blank (DMSO) value was subtracted. […] For antagonist- and cytotoxicity experiments, PC20 values were determined instead, which was defined […]

| SMILES | LEC TRβ‐anti [1] | LEC TCF [2] |
| --- | --- | --- |
| CCCCN(CC)C(=O)CCC(=O)N(CC)CCCC [EBSA, N,N′‐diethyl‐N,N′‐dibutylsuccindiamide] | – | – |
| CCCCN(C)C(=O)CCC(=O)N(C)CCCC [MBSA, N,N′‐dimethyl‐N,N′‐dibutylsuccindiamide] | – | – |

Now from value to molecule, other results behind:

| LEC TRβ‐anti [1] | SMILES | LEC TCF [2] |
| --- | --- | --- |
| – | CCCCN1CCCC1=O [NBP, N‐Butylpyrrolidinone, reference compound] | – |
| – | CN1CCCC1=O [NMP, N‐methyl‐2‐pyrrolidone, reference compound] | −2.1 Log M |
| – | CCCCN(CCCC)C(=O)CCC(=O)N(CCCC)CCCC [TBSA, N,N,N′,N′‐tetrabutylsuccindiamide] | – |

Source: paper PMC7318222, “A Family of Water‐Immiscible, Dipolar Aprotic, Diamide Solvents from Succinic Acid” (Chemsuschem, 2020)
